Reference: patent publication US20230399312A1, “SUBSTITUTED PYRIMIDINES AND METHODS OF USE” (THERAVANCE BIOPHARMA R&D IP, LLC, priority 2020, published 2023)
pKi: −log10 of the molar value.

Experiments:
[1] = system: TGF-β-stimulated SMAD3 phosphorylation in BEAS-2B cells; test: Cellular ALK5 potency assay, inhibition of TGF-β stimulated pSMAD3 formation in BEAS-2B cells; assay type: cell-based; settings: Homo sapiens, pSMAD3, TGF-β 10 ng/mL, read-out: BEAS2B pIC50 (converted)
Experimental: The potency of compounds of the present disclosure for inhibition of TGF-β-stimulated SMAD3 phosphorylation was measured in BEAS-2B cells, a human lung epithelial cell line. TGF-β signals through activin receptor-like kinase 5 (ALK5) immediately prior to SMAD3 phosphorylation.
BEAS-2B cells were grown using 50% DMEM (Life Technologies) and 50% F-12 (Life Technologies) media, supplemented with 10% Fetal Bovine Serum (ATCC), 25 mM HEPES (Life Technologies), and 1×Pen-Strep (Life Technologies). Cells were cultured in a humidified incubator set at 37° C., 5% CO2, and trypsonized using 0.25% Trypsin with 0.5% polyvinylpyrrolidone (PVP).
For the assay, BEAS-2B cells were seeded at 7,500 cells/well (25 μL/well) in a 384-well plate and cultured overnight. Before dosing, growth media was aspirated and the wells were rinsed with HBSS Buffer (HBSS with Calcium and Magnesium, Life Technologies) supplemented with 25 mM HEPES (Life Technologies) and 1% Bovine Serum Albumin (Roche). Compounds were serially diluted in DMSO, then further diluted with supplemented HBSS Buffer (50 μL/well) to create a compound plate 3× of the final assay concentration, at 0.3% DMSO. The diluted compounds were then added to the cells (8 μL/well) and incubated at 37° C., 5% CO2 for 1 hour. After the compound incubation, TGF-β (R&D Systems) reconstituted in supplemented HBSS Buffer was added to the cells ([…], final concentration 10 ng/mL) and incubated for a further 30 minutes, after which the cells were immediately lysed with AlphaLISA lysis buffer (PerkinElmer). AlphaLISA Acceptor and Detector beads (PerkinElmer) were added 2 hours apart, then incubated overnight to be read the next day. The potency of the compound was determined through analysis of dose-dependent quantified changes in pSMAD3 signal from baseline (non-compound treated TGF-β stimulated cells). Data are expressed as pIC50 (negative decadic logarithm IC50) values.

[2] = target: T1, recombinant human ALK5 (TGF-βR1) protein (Homo sapiens, UniProt P36897); test: Biochemical ALK5 (TGF-βR1) assay to measure pKi (LANCE Ultra ULight kinase assay); settings: apparent pKi, converted from pIC50 by Cheng-Prusoff
T1 construct: purchased Life Technologies PR9075A
T1 sequence (P36897 34-503): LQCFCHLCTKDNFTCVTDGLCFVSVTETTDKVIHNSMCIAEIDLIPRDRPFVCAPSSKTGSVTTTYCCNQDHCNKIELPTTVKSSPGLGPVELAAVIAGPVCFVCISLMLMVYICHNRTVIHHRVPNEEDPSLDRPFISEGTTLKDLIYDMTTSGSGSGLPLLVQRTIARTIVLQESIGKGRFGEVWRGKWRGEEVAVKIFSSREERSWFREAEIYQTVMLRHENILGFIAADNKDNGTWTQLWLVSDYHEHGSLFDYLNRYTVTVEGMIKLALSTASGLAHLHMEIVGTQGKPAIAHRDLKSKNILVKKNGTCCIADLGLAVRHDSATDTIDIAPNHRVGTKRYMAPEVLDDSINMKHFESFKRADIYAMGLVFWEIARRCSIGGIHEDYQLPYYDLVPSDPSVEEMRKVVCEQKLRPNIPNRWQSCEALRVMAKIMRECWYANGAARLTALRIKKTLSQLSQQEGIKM
Experimental: The assays were performed in a 384-well plate (24 columns×16 wells/rows). An Echo®550 Liquid Handler (Labcyte) was used to prepare various intermediate concentrations of compounds of the present disclosure in 100% DMSO. From the intermediate concentrations, a range of concentrations (from […] to 25 μM corresponding to volumes up to 105 nL) were prepared and ejected into a final assay plate to be used to create individual dose response curves for each of the subject compounds. To a separate column within the assay plate, 105 nL of DMSO in each well was used to establish a maximum assay signal. Additionally, 105 nL of 100 μM SD-208, a selective TGF-βR1 inhibitor (Catalog #S7624, Selleck Chemicals), was used in another column of wells to establish a minimal assay signal.
With a multidrop dispenser, 8 μL of enzyme mixture (1.25× final) was added to each well. […] The plate was then sealed with an adhesive seal and allowed to equilibrate for 60 minutes at room temperature.
Next, 2 μL of 125 μM ATP (5×final, 125 μM ATP prepared in assay buffer with 2 mM DTT) was added to the incubated mixtures, covered with a MicroClime® Environmental Lid (Product No. LLS-0310, Labcyte) and immediately transferred to 37° C. The reactions were allowed to proceed at 37° C. for 60 minutes before terminating with the addition of 10 μL of detection antibody (LANCE® (lanthanide chelate excite) Ultra Europium-anti-phospo-DNA Topoisomerase 2-alpha (Thr1342)) in detection mixture (12 mM EDTA, 4 nM detection antibody prepared in detection buffer (50 mM Tris-HCl, 150 mM NaCl, 0.5% BSA (Fraction V), pH 7.0)) at room temperature. The plate was then read on a Perkin Elmer EnVision Plate Reader using europium specific reader settings with excitation and emission wavelengths set to 320 or 340 nm and 665 nm, respectively.
For dose-response analyses, percent inhibition versus compound concentrations were plotted, and pIC50 values were determined from a 4-parameter robust fit model with GraphPad Prism V5 Software (GraphPad Software, Inc., La Jolla, CA). This model obtains pIC50 values by fitting the sigmoidal dose-response (variable slope) equation to the data. Results were expressed as pIC50 (negative logarithm of IC50) and subsequently converted to pKi (negative logarithm of dissociate constant, Ki) using the Cheng-Prusoff equation. The higher the value of pKi (lower value of Ki), the greater the inhibition of ALK5 activity.

| pKi [2] | Compound | IC50 [1] [nM] |
| --- | --- | --- |
| 9.50 to 10.40 | COC(=O)CC1CN(Cc2cccc(Nc3nccc(Nc4ccnc(-c5cccc(C)n5)n4)n3)c2)CCN1 (stereo not drawn) [Compound 411, methyl 2-[4-[[3-[[4-[[2-(6-methyl-2-pyridyl)pyrimidin-4-yl]amino]pyrimidin-2-yl]amino]phenyl]methyl]piperazin-2-yl]acetate] | 25.1 to 158 |
| 9.50 to 10.40 | Cc1cccc(-c2nccc(Nc3ccnc(Nc4csc(C(=O)OCCN5CCNCC5)c4)n3)n2)n1 [Compound 554, 2-piperazin-1-ylethyl 4-[[4-[[2-(6-methyl-2-pyridyl)pyrimidin-4-yl]amino]pyrimidin-2-yl]amino]thiophene-2-carboxylate] | 25.1 to 158 |
| 9.50 to 10.40 | Cc1cccc(-c2nccc(Nc3ccnc(Nc4ccc(C(=O)O[C@H]5CCNC5)nc4)n3)n2)n1 [Compound 547, [(3S)-pyrrolidin-3-yl] 5-[[4-[[2-(6-methyl-2-pyridyl)pyrimidin-4-yl]amino]pyrimidin-2-yl]amino]pyridine-2-carboxylate] | 25.1 to 158 |
| 9.50 to 10.40 | Cc1cccc(-c2nccc(Nc3ccnc(Nc4ccc(C(=O)O[C@@H]5CCCNC5)nc4)n3)n2)n1 [Compound 594, [(3R)-3-piperidyl] 5-[[4-[[2-(6-methyl-2-pyridyl)pyrimidin-4-yl]amino]pyrimidin-2-yl]amino]pyridine-2-carboxylate] | 200 to 1260 |
| 9.50 to 10.40 | COC(=O)CC1CN(Cc2ccc(Nc3nccc(Nc4ccnc(-c5cccc(C)n5)n4)n3)cc2)CCN1 (stereo not drawn) [Compound 451, methyl 2-[4-[[4-[[4-[[2-(6-methyl-2-pyridyl)pyrimidin-4-yl]amino]pyrimidin-2-yl]amino]phenyl]methyl]piperazin-2-yl]acetate] | 25.1 to 158 |
| 9.50 to 10.40 | Cc1cccc(-c2nccc(Nc3ccnc(Nc4ccc(N5CCN(CCN)CC5)cc4)n3)n2)n1 [Compound 478, N2-[4-[4-(2-aminoethyl)piperazin-1-yl]phenyl]-N4-[2-(6-methyl-2-pyridyl)pyrimidin-4-yl]pyrimidine-2,4-diamine] | 200 to 1260 |
| 9.50 to 10.40 | Cc1cccc(-c2nccc(Nc3ccnc(Nc4cccc(NC(=O)C5CCN(C)CC5)c4)n3)n2)n1 [Compound 145, 1-methyl-N-[3-[[4-[[2-(6-methyl-2-pyridyl)pyrimidin-4-yl]amino]pyrimidin-2-yl]amino]phenyl]piperidine-4-carboxamide] | 25.1 to 158 |
| 9.50 to 10.40 | Cc1cccc(-c2nccc(Nc3ccnc(Nc4ccc(N(C)CC5CNC5)cc4)n3)n2)n1 [Compound 202, N2-(4-((azetidin-3-ylmethyl)(methyl)amino)phenyl)-N4-(2-(6-methylpyridin-2-yl)pyrimidin-4-yl)pyrimidine-2,4-diamine] | 25.1 to 158 |
| 8.50 to 9.40 | Cc1cccc(-c2nccc(Nc3ccnc(Nc4ccc5[nH]ncc5c4)n3)n2)n1 [Compound 284, N2-(1H-indazol-5-yl)-N4-[2-(6-methyl-2-pyridyl)pyrimidin-4-yl]pyrimidine-2,4-diamine] | ≤ 20 |
| 8.50 to 9.40 | Cc1cccc(-c2nccc(Nc3ccnc(Nc4nc(CN5CCC[C@@H](C(=O)OCC6CNC6)C5)cs4)n3)n2)n1 [Compound 155, azetidin-3-ylmethyl (3R)-1-[[2-[[4-[[2-(6-methyl-2-pyridyl)pyrimidin-4-yl]amino]pyrimidin-2-yl]amino]thiazol-4-yl]methyl]piperidine-3-carboxylate] | 200 to 1260 |
| 9.50 to 10.40 | Cc1cccc(-c2nccc(Nc3ccnc(Nc4cncc(CN5CC(C(=O)OC6CCNCC6)C5)c4)n3)n2)n1 [Compound 565, 4-piperidyl 1-[[5-[[4-[[2-(6-methyl-2-pyridyl)pyrimidin-4-yl]amino]pyrimidin-2-yl]amino]-3-pyridyl]methyl]azetidine-3-carboxylate] | 25.1 to 158 |
| 7.50 to 8.40 | Cc1cccc(-c2nccc(Nc3ccnc(Nc4cccc(S(=O)(=O)N5CCNCC5)c4)n3)n2)n1 [Compound 306, N4-[2-(6-methyl-2-pyridyl)pyrimidin-4-yl]-N2-(3-piperazin-1-ylsulfonylphenyl)pyrimidine-2,4-diamine] | 25.1 to 158 |
| 9.50 to 10.40 | Cc1cccc(-c2nccc(Nc3ccnc(Nc4ccc(CN5C[C@@H](C)N[C@@H](C)C5)cc4)n3)n2)n1 [Compound 240, N2-[4-[[(3R,5S)-3,5-dimethylpiperazin-1-yl]methyl]phenyl]-N4-[2-(6 methyl-2-pyridyl)pyrimidin-4-yl]pyrimidine-2,4-diamine] | 25.1 to 158 |
| 9.50 to 10.40 | Cc1cccc(-c2nccc(Nc3ccnc(Nc4ccc(CN5CCC[C@@H](C(=O)O[C@@H]6CCN(C)C6)C5)cc4)n3)n2)n1 [Compound 341, [(3R)-1-methylpyrrolidin-3-yl] (3R)-1-[[4-[[4-[[2-(6-methyl-2-pyridyl)pyrimidin-4-yl]amino]pyrimidin-2-yl]amino]phenyl]methyl] piperidine-3-carboxylate] | 25.1 to 158 |
| 9.50 to 10.40 | Cc1cccc(-c2nccc(Nc3ccnc(Nc4cncc(CN5CC(C(=O)O[C@H]6CCNC6)C5)c4)n3)n2)n1 [Compound 573, [(3S)-pyrrolidin-3-yl] 1-[[5-[[4-[[2-(6-methyl-2-pyridyl)pyrimidin-4-yl]amino]pyrimidin-2-yl]amino]-3-pyridyl]methyl]azetidine-3-carboxylate] | 25.1 to 158 |
| 9.50 to 10.40 | Cc1cccc(-c2nccc(Nc3ccnc(Nc4ccc(Cl)c(CN5CCNCC5)c4)n3)n2)n1 [Compound 49, N2-[4-chloro-3-(piperazin-1-ylmethyl)phenyl]-N4-[2-(6-methyl-2-pyridyl)pyrimidin-4-yl]pyrimidine-2,4-diamine] | 25.1 to 158 |
| 9.50 to 10.40 | Cc1cccc(-c2nccc(Nc3ccnc(Nc4ccc(NC(=O)N5CCNCC5)cc4)n3)n2)n1 [Compound 228, N-(4-((4-((2-(6-methylpyridin-2-yl)pyrimidin-4-yl)amino)pyrimidin-2-yl)amino)phenyl)piperazine-1-carboxamide] | 25.1 to 158 |
| 9.50 to 10.40 | Cc1cccc(-c2nccc(Nc3ccnc(Nc4ccc(C5=CCC(NC(C)C)CC5)cc4)n3)n2)n1 (stereo not drawn) [Compound 358, N2-[4-[4-(isopropylamino)cyclohexen-1-yl]phenyl]-N4-[2-(6-methyl-2-pyridyl)pyrimidin-4-yl]pyrimidine-2,4-diamine] | 200 to 1260 |
